Laboratory results from patent US8076323B2, “Anti-inflammatory agents” (Cambridge Enterprise Limited, priority 2005, dated 2011).
Bridges are numbered along the chain shown (N, C = ends). Where no end group is shown, it is not given here. [ ]: non-standard residue; d: D form.

Key:
[1] = system: chemokine-induced migration; conditions: cited from earlier work
[2] = oral route or injection; comparable to dexamethasone; cited from earlier work
stability in human serum = assay type: in vitro ADME; conditions: 37° C.
[3] = system: chemokine-induced migration; test: chemokine-induced leukocyte migration in vitro (prior work); assay type: cell-based; conditions: compared with (S)-3-(undec-10-enoyl)-aminoglutarimide
[4] = cited from earlier work

## O=C1NCCCC[C@@H]1NC(=O)C12CC3CC(CC(C3)C1)C2 [(S)-3-(1′-adamantanecarbonylamino)caprolactam]
[1]
  inhibition of leukocyte migration or recruitment in vitro (in words): potent inhibitor
[2]
  anti-inflammatory activity in vivo (in words): powerful anti-inflammatory activity

## C=CCCCCCCCCC(=O)[C@@H]1CCCNC1=O [(S)-3-(undec-10-enoyl)-tetrahydropyridin-2-one]
Stability in human serum
  time completely stable in human serum: at least 7 days
[3]
  potency compared with the parental molecule: considerably reduced potency

## c(DCys-DGin-DIle-DTrp-DLys-DGln-DLys-DPro-DAsp-DLeu-DCys)-NH2 ([dC][dQ][dI][dW][dK][dQ][dK][dP][dD][dL][dC]-NH2; disulfide 1-11 (inferred)) [NR58-3.14.3]
[4]; after intravenous injection
  half-life period of clearance from blood plasma: less than 30 minutes
[4]; in vivo, po
  oral bioavailability: not orally bioavailable
